ChEMBL document CHEMBL3351396, “Synthesis of the novel elemonic acid derivatives as Pin1 inhibitors” (Bioorg Med Chem Lett, 2014)

Molecular target: Peptidyl-prolyl cis-trans isomerase NIMA-interacting 1 (Homo sapiens, UniProt Q13526)
Assay: Inhibition of Pin1 (unknown origin) using Suc-Ala-Glu-Pro-Phe-4-nitroanilide as substrate after 30 mins by protease-coupled assay

Peptidyl-prolyl cis-trans isomerase NIMA-interacting 1, sequence (Q13526 whole entry): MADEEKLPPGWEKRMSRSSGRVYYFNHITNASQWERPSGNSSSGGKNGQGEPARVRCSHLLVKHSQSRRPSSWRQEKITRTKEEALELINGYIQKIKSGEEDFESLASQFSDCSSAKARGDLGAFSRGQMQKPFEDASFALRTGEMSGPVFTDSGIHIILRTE

SMILES	IC50 [µM]
CC1(C)C(=O)CC[C@]2(C)C3=C(CC[C@@H]12)[C@@]1(C)CC[C@@H]([C@H](CCC(N)=O)C(=O)OCc2ccccc2)[C@]1(C)CC3	> 40
COC(=O)CC[C@H](C(=O)OCc1ccccc1)[C@@H]1CC[C@]2(C)C3=C(CC[C@@]12C)[C@@]1(C)CCC(=O)C(C)(C)[C@@H]1CC3	> 40
CC(C)=CCC[C@H](C(=O)OCc1ccccc1)[C@@H]1CC[C@]2(C)C3=C(CC[C@@]12C)[C@@]1(C)C/C(=C\C(=O)O)C(=O)C(C)(C)[C@@H]1CC3	0.57
CN(C)C(=O)CC[C@H](C(=O)OCc1ccccc1)[C@@H]1CC[C@]2(C)C3=C(CC[C@@]12C)[C@@]1(C)CCC(=O)C(C)(C)[C@@H]1CC3	0.83
CC(C)=CCC[C@H](C(=O)OCc1ccccc1)[C@@H]1CC[C@]2(C)C3=C(CC[C@@]12C)[C@@]1(C)C/C(=C\C(=O)N2CCN(C)CC2)C(=O)C(C)(C)[C@@H]1CC3	32.3
CC(C)=CCC[C@H](C(=O)O)[C@@H]1CC[C@]2(C)C3=C(CC[C@@]12C)[C@@]1(C)CCC(=O)C(C)(C)[C@@H]1CC3	13.2
CC1(C)C(=O)CC[C@]2(C)C3=C(CC[C@@H]12)[C@@]1(C)CC[C@@H]([C@H](CCC(=O)N2CCNCC2)C(=O)OCc2ccccc2)[C@]1(C)CC3	> 40
CN1CCN(C(=O)CC[C@H](C(=O)OCc2ccccc2)[C@@H]2CC[C@]3(C)C4=C(CC[C@@]23C)[C@@]2(C)CCC(=O)C(C)(C)[C@@H]2CC4)CC1	31.5
CC1(C)C(=O)CC[C@]2(C)C3=C(CC[C@@H]12)[C@@]1(C)CC[C@@H]([C@H](CCC#N)C(=O)OCc2ccccc2)[C@]1(C)CC3	14.1

Other lines, results leading:

IC50 [µM]	SMILES
> 40	CC(C)=CCC[C@H](C(=O)OCc1ccccc1)[C@@H]1CC[C@]2(C)C3=C(CC[C@@]12C)[C@@]1(C)C/C(=C\C(=O)N2CCNCC2)C(=O)C(C)(C)[C@@H]1CC3
1.47	CC1(C)C(=O)CC[C@]2(C)C3=C(CC[C@@H]12)[C@@]1(C)CC[C@@H]([C@H](CCC(=O)O)C(=O)OCc2ccccc2)[C@]1(C)CC3=O
3.68	CC1(C)C(=O)CC[C@]2(C)C3=C(CC[C@@H]12)[C@@]1(C)CC[C@@H]([C@H](CCC(=O)O)C(=O)OCc2ccccc2)[C@]1(C)CC3
> 40	CC1(C)C(=O)CC[C@]2(C)C3=C(C(=O)C[C@@H]12)[C@@]1(C)CC[C@@H]([C@H](CCC(=O)O)C(=O)OCc2ccccc2)[C@]1(C)CC3
2.6	CC1(C)C(=O)CC[C@]2(C)C3=C(CC[C@@H]12)[C@@]1(C)CC[C@@H]([C@H](CCc2nnn[nH]2)C(=O)OCc2ccccc2)[C@]1(C)CC3
